# Legend:
# Assay type in all cases: cell-based
# [1] = biological target: T1, SMARCA4 (Homo sapiens, UniProt P51532); experiment: SMARCA4 protein degradation in NCIH520 cells by In Cell Western (ICW); settings: highest concentration 1 μM; for DC50: H520 cells, overnight incubation (maximum 18 hours), read-out: DC50 (SM4_H520): SMARCA4 degradation potency; for Dmax: NCI-H520, overnight incubation (maximum 18 hours), read-out: Dmax % (SM4_H520): maximum SMARCA4 degradation within the concentrations tested
# T1 construct: endogenous in cells; host or cells: NCI-H520 (given as NCIH520 / NCIH1520 / H520)
# Protocol: (§1) Compounds were dissolved in DMSO to make 10 mM stock and 3-fold series dilutions were further conducted keeping the highest concentration 10 μM. NCIH11693 and NCIH1520 cells were maintained in PRMI 1640 medium (Corning Cellgro, Catalog #: 10-040-CV) supplemented with 10% v/v FBS (GE Healthcare, Catalog #: SH30910.03) by splitting 1:3 twice a week.
# (§2) SMACRA2 and SMARCA4 Protein Degradation DC50 Values in NCIH1693 and NCIH520 Cells by in Cell Western (ICW) Analysis.
# (§3) Cells were trypsinized and 30 thousand cells/well were seeded into 384-well plates and were allowed to grow for 1-2 hours at 37° C. Eight-point, 3-fold serial dilutions of compounds from 0.5 mM stocks were added to the cells (using digital Dispenser D300-Tecan, keeping highest concentration 1 μM and normalizing with DMSO at the highest dispensed volume). Plates were incubated at 37° C. for overnight (maximum 18 hours). Cells incubated with DMSO was used as a vehicle control.
# (§4) To perform In Cell Western, medium was removed from all the wells leaving cells attached to the surface. After removing the medium, cells were fixed within the plates with 40 μL of 4% formaldehyde by incubating at room temperature for 30 minutes, and then permeabilized with wash buffer (1×PBS with 0.1% Triton X-100) by washing the plate 5 times with 50 μL/well. Before labeling with primary antibodies, cells were blocked with 30 μL/well of blocking buffer (Licor Odyssey blocking buffer PBS #927-40000) for 30 minutes at room temperature. To measure SMARCA2 or SMARCA4 proteins, cells were labeled with 20 μL/well of anti SMARCA2 or SMACRA4 antibodies (Cell Signaling BRM #11966S 1:800, Cell Signaling BRG #49360S 1:800) diluted in Li-Cor Odyssey blocking buffer-PBS #927-40000, followed by overnight incubation at 4° C.
# (§5) The next day, plates were washed 5×5 minutes with 50 μL/well of washing buffer to remove all the excess primary antibody and then 20 μL from a mixture of secondary antibody and fluorescent DNA specific dye (Goat anti rabbit 1:500 IRDye-800CW #92632211, and DRAQ5™ 1:2000-#ab108410) was added to each well. Plates were incubated for 1 hour at room temperature with gentle rocking. Cells were washed 5 times with 50 μL/well wash buffer, followed by one last wash with DI water, followed by 10 mins drying at 37° C. oven before scanning. Plates were scanned using Li-Cor Odyssey CLx imaging system to acquire integrated intensities at 700 nm and 800 nm. SMARCA signals were normalized to total cell count and then these normalized values were used to calculate the percent degradation relative to DMSO control and maximum inhibition. DC50s were calculated by using the GraphPad Prism4 program based on sigmoidal dose response equation ([Inhibitor] vs. normalized response-Variable slope).
# (§6) In Table 36, the DC50/Dmax% (SM2_H520) refers to SMARCA2 degradation potency/maximum SMARCA2 degradation within the concentrations in H520 cells and DC50/Dmax% (SM4_H520) refers to SMARCA4 degradation potency/maximum SMARCA4 degradation within the concentrations tested in H520 cells.
# [2] = biological target: T2, SMARCA2 (Homo sapiens, UniProt P51531); experiment: SMARCA2 protein degradation in NCIH520 cells by In Cell Western (ICW); settings: highest concentration 1 μM; for DC50: H520 cells, overnight incubation (maximum 18 hours), read-out: DC50 (SM2_H520): SMARCA2 degradation potency; for Dmax: NCI-H520, overnight incubation (maximum 18 hours), read-out: Dmax % (SM2_H520): maximum SMARCA2 degradation within the concentrations tested
# T2 construct: endogenous in cells; host or cells: NCI-H520 (given as NCIH520 / NCIH1520 / H520)
# Protocol: as §1, §2, §3, §4, §5, §6
# [3] = biological target: T3, SMARCA2-HiBiT (Homo sapiens, UniProt P51531); experiment: SMARCA2 HiBiT degradation assay in HeLa cells; settings: 18 hours incubation; for DC50: read-out: HeLa_HiBit-SM2 DC50; for Dmax: HeLa, read-out: HeLa-HiBit-SM2 Dmax (%)
# T3 construct: SMARCA2-HiBiT knock-in Hela monoclonal cell (CS302366); host or cells: HeLa monoclonal knock-in line (CRISPR HiBiT knock-in at the endogenous locus, heterozygous)
# Procedure, shortened: (§7)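 HeLa monoclonal lines with heterozygous HiBiT knock-in were seeded at 2500 cells/well in EMEM with 10% FBS and treated with compound for 18 h at 37 °C. Remaining tagged protein was measured by Nano-Glo HiBiT lytic luminescence after 30–60 min at RT, and values came from curve fitting.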
# [4] = biological target: T4, SMARCA4-HiBiT (Homo sapiens, UniProt P51532); experiment: SMARCA4 HiBiT degradation assay in HeLa cells; settings: 18 hours incubation; for DC50: read-out: HeLa-HiBit-SM4 DC50; for Dmax: HeLa, read-out: HeLa-HiBit-SM4 Dmax (%)
# T4 construct: SMARCA4-HiBiT knock-in Hela monoclonal cell (CS3023226); host or cells: HeLa monoclonal knock-in line (CRISPR HiBiT knock-in at the endogenous locus, heterozygous)
# Procedure, shortened: as §7
# T1 sequence (P51532 whole entry): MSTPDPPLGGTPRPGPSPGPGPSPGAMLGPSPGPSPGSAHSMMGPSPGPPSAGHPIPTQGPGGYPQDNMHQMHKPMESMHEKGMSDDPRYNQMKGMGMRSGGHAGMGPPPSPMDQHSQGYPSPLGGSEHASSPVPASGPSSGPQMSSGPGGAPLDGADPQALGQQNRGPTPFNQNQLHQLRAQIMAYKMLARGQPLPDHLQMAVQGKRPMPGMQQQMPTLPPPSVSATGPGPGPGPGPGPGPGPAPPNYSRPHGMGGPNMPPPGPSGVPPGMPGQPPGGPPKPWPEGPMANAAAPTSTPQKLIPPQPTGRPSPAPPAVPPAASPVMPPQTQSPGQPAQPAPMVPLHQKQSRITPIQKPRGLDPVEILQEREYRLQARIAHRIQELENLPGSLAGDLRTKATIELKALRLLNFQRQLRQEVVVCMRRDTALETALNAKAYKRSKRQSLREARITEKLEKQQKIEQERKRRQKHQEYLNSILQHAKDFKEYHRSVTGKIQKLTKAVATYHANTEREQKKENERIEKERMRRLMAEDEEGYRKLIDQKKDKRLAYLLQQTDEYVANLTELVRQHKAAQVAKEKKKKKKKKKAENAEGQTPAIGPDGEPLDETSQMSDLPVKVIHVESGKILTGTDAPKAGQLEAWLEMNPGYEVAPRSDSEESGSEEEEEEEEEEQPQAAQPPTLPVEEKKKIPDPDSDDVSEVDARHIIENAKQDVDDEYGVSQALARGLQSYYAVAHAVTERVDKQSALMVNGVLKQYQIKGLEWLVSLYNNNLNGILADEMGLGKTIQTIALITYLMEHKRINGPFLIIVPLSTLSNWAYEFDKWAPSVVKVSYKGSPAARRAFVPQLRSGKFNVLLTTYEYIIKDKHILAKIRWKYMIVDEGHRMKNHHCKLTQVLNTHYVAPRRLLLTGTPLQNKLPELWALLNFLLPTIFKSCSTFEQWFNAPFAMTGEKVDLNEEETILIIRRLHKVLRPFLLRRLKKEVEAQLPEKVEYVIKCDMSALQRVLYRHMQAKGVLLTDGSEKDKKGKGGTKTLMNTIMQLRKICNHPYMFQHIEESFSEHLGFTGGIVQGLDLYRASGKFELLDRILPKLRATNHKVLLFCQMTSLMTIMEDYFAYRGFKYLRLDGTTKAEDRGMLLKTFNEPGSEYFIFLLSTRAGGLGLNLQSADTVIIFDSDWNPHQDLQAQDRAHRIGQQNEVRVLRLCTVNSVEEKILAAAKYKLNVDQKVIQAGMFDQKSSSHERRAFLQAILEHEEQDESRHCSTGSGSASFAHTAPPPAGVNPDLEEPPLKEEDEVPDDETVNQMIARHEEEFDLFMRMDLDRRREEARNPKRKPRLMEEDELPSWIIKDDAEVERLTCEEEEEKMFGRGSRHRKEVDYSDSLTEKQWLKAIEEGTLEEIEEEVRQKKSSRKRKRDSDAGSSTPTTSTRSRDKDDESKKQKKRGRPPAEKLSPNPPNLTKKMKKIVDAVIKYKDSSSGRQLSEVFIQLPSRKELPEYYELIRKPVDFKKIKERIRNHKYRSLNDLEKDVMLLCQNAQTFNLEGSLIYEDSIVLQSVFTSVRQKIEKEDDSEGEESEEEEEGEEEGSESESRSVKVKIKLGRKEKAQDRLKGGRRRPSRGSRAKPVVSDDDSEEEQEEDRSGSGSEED
# T4 sequence (P51532 whole entry): as above
# T3 sequence (P51531 whole entry): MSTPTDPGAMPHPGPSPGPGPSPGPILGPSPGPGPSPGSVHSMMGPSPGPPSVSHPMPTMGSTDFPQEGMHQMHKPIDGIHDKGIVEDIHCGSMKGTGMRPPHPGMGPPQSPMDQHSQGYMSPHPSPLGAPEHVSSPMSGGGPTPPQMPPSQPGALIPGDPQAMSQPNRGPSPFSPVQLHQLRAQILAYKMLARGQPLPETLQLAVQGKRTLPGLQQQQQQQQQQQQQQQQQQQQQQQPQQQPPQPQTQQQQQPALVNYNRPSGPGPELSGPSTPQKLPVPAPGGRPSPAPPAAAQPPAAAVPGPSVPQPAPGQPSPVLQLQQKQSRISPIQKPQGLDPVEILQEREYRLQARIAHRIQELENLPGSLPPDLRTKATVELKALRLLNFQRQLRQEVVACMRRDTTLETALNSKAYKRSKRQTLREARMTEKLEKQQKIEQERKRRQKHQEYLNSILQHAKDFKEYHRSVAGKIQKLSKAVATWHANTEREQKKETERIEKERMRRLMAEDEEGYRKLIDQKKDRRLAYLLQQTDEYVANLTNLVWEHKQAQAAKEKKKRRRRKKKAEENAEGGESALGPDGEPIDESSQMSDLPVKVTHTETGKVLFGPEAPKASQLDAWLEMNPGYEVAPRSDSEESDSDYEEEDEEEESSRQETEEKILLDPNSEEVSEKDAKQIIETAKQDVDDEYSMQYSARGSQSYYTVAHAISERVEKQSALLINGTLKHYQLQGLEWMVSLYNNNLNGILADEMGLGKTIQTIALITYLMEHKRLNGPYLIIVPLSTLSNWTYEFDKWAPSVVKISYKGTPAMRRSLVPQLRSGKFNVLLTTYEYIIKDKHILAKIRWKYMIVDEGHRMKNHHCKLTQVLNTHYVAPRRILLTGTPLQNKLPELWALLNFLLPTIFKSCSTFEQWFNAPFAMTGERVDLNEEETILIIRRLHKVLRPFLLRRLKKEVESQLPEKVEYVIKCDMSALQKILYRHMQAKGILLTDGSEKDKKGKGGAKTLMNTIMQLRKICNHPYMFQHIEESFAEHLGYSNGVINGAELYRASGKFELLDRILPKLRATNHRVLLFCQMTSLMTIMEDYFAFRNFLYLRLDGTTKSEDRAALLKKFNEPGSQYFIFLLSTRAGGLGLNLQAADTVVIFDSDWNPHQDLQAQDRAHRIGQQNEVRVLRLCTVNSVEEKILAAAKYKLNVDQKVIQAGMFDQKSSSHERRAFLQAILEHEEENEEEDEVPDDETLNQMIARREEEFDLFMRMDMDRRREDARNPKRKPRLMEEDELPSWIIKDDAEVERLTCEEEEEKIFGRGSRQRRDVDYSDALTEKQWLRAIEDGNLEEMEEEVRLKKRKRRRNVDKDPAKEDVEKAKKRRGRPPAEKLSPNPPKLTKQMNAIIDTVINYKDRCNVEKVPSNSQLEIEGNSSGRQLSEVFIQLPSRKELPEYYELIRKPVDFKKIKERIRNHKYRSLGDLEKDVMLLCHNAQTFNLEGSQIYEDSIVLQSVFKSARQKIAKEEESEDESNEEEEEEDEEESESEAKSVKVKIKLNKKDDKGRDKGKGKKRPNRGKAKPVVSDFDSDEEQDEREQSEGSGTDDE
# T2 sequence (P51531 whole entry): as above
SMILES,DC50 [1] [nM],Dmax [1] [%],DC50 [2] [nM],Dmax [2] [%],DC50 [3] [nM],Dmax [3] [%],DC50 [4] [nM],Dmax [4] [%]
"O=C1CCC(N2C(=O)c3ccc(N4CCC(OCCN5CCC(N6CCN7c8cc(-c9ccccc9O)nnc8NC[C@H]7C6)CC5)CC4)cc3C2=O)C(=O)N1 (stereo partly drawn) [Example 16, 2-(2,6-Dioxopiperidin-3-yl)-5-(4-(2-(4-((S)-2-(2-hydroxyphenyl)-5,6,6a,7,9,10-hexahydro-8H-pyrazino[1′,2′:4,5]pyrazino[2,3-c]pyridazin-8-yl)piperidin-1-yl)ethoxy)piperidin-1-yl) isoindoline-1,3-dione]",< 100,50 to 75,< 100,> 75,,,,
"O=C1CCC(N2Cc3cc(CCN4CCC(/C=C/c5cnc(N6CCN7c8cc(-c9ccccc9O)nnc8NC[C@H]7C6)nc5)CC4)ccc3C2=O)C(=O)N1 (stereo partly drawn) [Example 7, 3-(5-(2-(4-((E)-2-(2-((S)-2-(2-hydroxyphenyl)-5,6,6a,7,9,10-hexahydro-8H-pyrazino[1′,2′:4,5]pyrazino[2,3-c]pyridazin-8-yl)pyrimidin-5-yl)vinyl)piperidin-1-yl)ethyl)-1-oxoisoindolin-2-yl)piperidine-2,6-dione]",< 100,> 75,< 100,> 75,,,,
"O=C1CCC(n2c3ccc(CCCN4CCN(CCN5CCN6c7cc(-c8ccccc8O)nnc7NC[C@H]6C5)CC4)cc3c3cccnc32)C(=O)N1 (stereo partly drawn) [Example 22, 3-(6-(3-(4-(2-((S)-2-(2-hydroxyphenyl)-5,6,6a,7,9,10-hexahydro-8H-pyrazino [1′,2′:4,5]pyrazino[2,3-c]pyridazin-8-yl)ethyl)piperazin-1-yl)propyl)-9H-pyrido[2,3-b]indol-9-yl)piperidine-2,6-dione]",< 100,> 75,< 100,> 75,,,,
"O=C1CCC(n2c3ccc(CCCN4CCC(c5cnc(O[C@H]6C[C@@H]7CNc8nnc(-c9ccccc9O)cc8N7C6)nc5)CC4)cc3c3cccnc32)C(=O)N1 (stereo partly drawn) [Example 23, 3-(6-(3-(4-(2-(((6aR,8S)-2-(2-hydroxyphenyl)-5,6,6a,7,8,9-hexahydro-pyrrolo[1′,2′:4,5]pyrazino[2,3-c]pyridazin-8-yl)oxy)pyrimidin-5-yl)piperidin-1-yl)propyl)-9H-pyrido[2,3-b]indol-9-yl)piperidine-2,6-dione]",,,< 100,> 75,,,,
"O=C1CCC(N2C(=O)c3ccc(N4CCC(OCCN5CCC(N6CCN7c8cc(-c9ccccc9O)nnc8NC[C@H]7C6)C5)CC4)cc3C2=O)C(=O)N1 (stereo partly drawn) [Example 15, 2-(2,6-Dioxopiperidin-3-yl)-5-(4-(2-(3-((S)-2-(2-hydroxyphenyl)-5,6,6a,7,9,10-hexahydro-8H-pyrazino[1′,2′:4,5]pyrazino[2,3-c]pyridazin-8-yl)pyrrolidin-1-yl)ethoxy)piperidin-1-yl) isoindoline-1,3-dione]",,,< 100,50 to 75,,,,
"O=C1CCC(N2C(=O)c3ccc(N4CCC(CN5CCC6C(C5)C6CN5CCN6c7cc(-c8ccccc8O)nnc7NC[C@H]6C5)CC4)cc3C2=O)C(=O)N1 (stereo partly drawn) [Example 46, 2-(2,6-dioxopiperidin-3-yl)-5-(4-((7-(((S)-2-(2-hydroxyphenyl)-5,6,6a,7,9,10-hexahydro-8H-pyrazino[1′,2′:4,5]pyrazino[2,3-c]pyridazin-8-yl)methyl)-3-azabicyclo[4.1,0]heptan-3-yl)methyl)piperidin-1-yl)isoindoline-1,3-dione]",,,,,< 10,> 85,< 10,> 85
"CC(CN1CCN2c3cc(-c4ccccc4O)nnc3NC[C@H]2C1)C1CCN(CC2CCN(c3ccc4c(c3)C(=O)N(C3CCC(=O)NC3=O)C4=O)CC2)CC1 (stereo partly drawn) [Example 249, 2-(2,6-dioxopiperidin-3-yl)-5-(4-((4-(1-((S)-2-(2-hydroxyphenyl)-5,6,6a,7,9,10-hexahydro-8H-pyrazino[1′,2′:4,5]pyrazino[2,3-c]pyridazin-8-yl)propan-2-yl)piperidin-1-yl)methyl)piperidin-1-yl)isoindoline-1,3-dione]",,,,,< 10,> 85,< 10,> 85
"O=C1CCC(N2C(=O)c3ccc(N4CCC(CN5CCC(CCN6CCN7c8cc(-c9ccccc9O)nnc8NC[C@H]7C6)CC5)CC4)cc3C2=O)C(=O)N1 (stereo partly drawn) [Example 229, 2-(2,6-dioxopiperidin-3-yl)-5-(4-((4-(2-((S)-2-(2-hydroxyphenyl)-5,6,6a,7,9,10-hexahydro-8H-pyrazino[1′,2′:4,5]pyrazino[2,3-c]pyridazin-8-yl)ethyl)piperidin-1-yl)methyl)piperidin-1-yl)isoindoline-1,3-dione]",,,,,< 10,> 85,< 10,> 85
"O=C1CCC(N2C(=O)c3ccc(N4CCC(CN5CC6CC(CN7CCN8c9cc(-c%10ccccc%10O)nnc9NC[C@H]8C7)C6C5)CC4)cc3C2=O)C(=O)N1 (stereo partly drawn) [Example 177, 2-(2,6-dioxopiperidin-3-yl)-5-[4-[[6-[[(10S)-4-(2-hydroxyphenyl)-1,5,6,8,12-pentazatricyclo[8.4.0.02,7]tetradeca-2,4,6-trien-12-yl]methyl]-3-azabicyclo[3.2.0]heptan-3-yl]methyl]piperidin-1-yl]isoindole-1,3-dione]",,,,,< 10,> 85,< 10,50 to 75
"O=C1CCC(N2Cc3cc(OCCN4CCCC(CN5CCN6c7cc(-c8ccccc8O)nnc7NC[C@H]6C5)C4)ccc3C2=O)C(=O)N1 (stereo partly drawn) [Example 255, 3-(5-(2-(3-(((S)-2-(2-hydroxyphenyl)-5,6,6a,7,9,10-hexahydro-8H-pyrazino[1′,2′:4,5]pyrazino[2,3-c]pyridazin-8-yl)methyl)piperidin-1-yl)ethoxy)-1-oxoisoindolin-2-yl)piperidine-2,6-dione]",,,,,10 to 100,75 to 85,100 to 1000,≤ 50
"CC1CN(CC2CCN(c3ccc4c(c3)C(=O)N(C3CCC(=O)NC3=O)C4)CC2)CC(C)N1C(=O)N1CCN2c3cc(-c4ccccc4O)nnc3NC[C@H]2C1 (stereo partly drawn) [Example 266, 3-(6-(4-((4-((S)-2-(2-hydroxyphenyl)-6,6a,7,8,9,10-hexahydro-5H-pyrazino[1′,2′:4,5]pyrazino[2,3-c]pyridazine-8-carbonyl)-3,5-dimethylpiperazin-1-yl)methyl)piperidin-1-yl)-1-oxoisoindolin-2-yl)piperidine-2,6-dione]",,,,,< 10,> 85,< 10,> 85
